These results are taken from US11919856B2, “Compounds” (UCL BUSINESS LTD, priority 2018, dated 2024).

The structures appear in SMILES notation. “Also recorded” adds a separate entry of the source.

Data set [1] deals with Z α1-antitrypsin polymer. The experiment in a line: Liver polymer levels in Z α1-antitrypsin transgenic mice (2C1 staining). Particulars: 100 mg/kg three times a day for 20 days. It is filed as in vivo, human. The procedure:
Since Compound 1 blocks polymer formation in cells the effect of dosing Compound 1 on liver polymer levels was explored. It has recently been shown that Z α1-antitrypsin polymers formed in CHO-TET-ON-Z-A1AT and ZZ-iPSC-hepatocytes are cleared from cells with a t½ of between 8 and 48 hours depending on whether they partition to the soluble or insoluble fractions. […] Compound 1 was therefore dosed at 100 mg/kg three times a day as above for 20 days. On days 15 and 21 of dosing, changes of monomeric Z α1-antitrypsin plasma samples were determined as above, and increases of 7- to 8-fold over the pre-dosing baseline levels were observed, similar to the effect in animals dosed for 3 or 6 days, consistent with sustained target engagement through the dosing period. Liver polymer levels were investigated by staining with 2C1 anti-polymer monoclonal antibody and were scored blinded either by a pathologist or by quantification using an algorithm to measure all areas of positive staining. There was no difference observed in total liver polymer load via manual or quantitative scoring.
To investigate whether there is a subpopulation of polymer in the liver that was responding to compound over the time frame of the experiment, areas of staining were divided into low, medium and high intensity regions and scored separately for response to compound. […]

For data set [2], the system named is α1-antitrypsin. The experiment in a line: Equilibrium unfolding with guanidine hydrochloride (bis-ANS fluorescence). It is filed as biochemical. Particulars: guanidinium hydrochloride, 50 μM Compound 1; 1.2 M in its absence. The procedure: Bis-ANS is a dye that reports the appearance of the unfolding intermediate of α1-antitrypsin (Dafforn et al. J Biol Chem. 1999; 274:9548-55.). In a microplate, 10 μl aliquots of M and Z α1-antitrypsin at 0.5 mg/ml with 100 μM bis-ANS and 100 μM Compound 1 (or an equivalent volume of DMSO) were rapidly mixed with various concentrations of guanidine hydrochloride giving a final concentration of 0-6 M denaturant in PBS. Fluorescence intensity measurements of bis-ANS (λex=385 nm, λem=490 nm) were recorded once a stable signal was achieved, and the values scaled to lie between 0 and 1.0.
Polymerisation of α1-antitrypsin occurs from a transient intermediate state known as M*, that is readily populated by the Z variant. One of the hallmarks of M* is its recognition by environment-sensitive fluorescent reporter dyes. Thermal shift assays that make use of the dye SYPRO Orange report the stability of the protein native state against heat-induced unfolding. […] Native state stability can also be probed by equilibrium unfolding using chemical denaturants, where a peak in bis-ANS fluorescence corresponds with a maximally populated unfolding intermediate.

Data set [3] deals with T1, Z α1-antitrypsin (Homo sapiens, UniProt P01009, E366K/V237A). In words: Polymerisation of Z α1-antitrypsin in iPSC-derived hepatocytes (ZZ genotype). It is filed as cell-based. The note with it: read-out: pIC50, polymerisation of Z α1-antitrypsin (converted). Further details: a random insertion of the human Z α1-antitrypsin gene; from tissue; host or cells: liver and plasma of Z α1-antitrypsin transgenic mice (human Z transgene). The procedure:
In order to confirm that the potency and efficacy of Compound 1 in CHO-TET-ON-Z-A1AT was a reasonable estimate of what could be expected in hepatocytes with endogenous levels of expression, the effect of Compound 1 on the secretion and polymerisation of Z α1-antitrypsin was measured in iPSC-derived hepatocytes with the ZZ α1-antitrypsin genotype (Yusa et al. Nature. 2011; 478:391-4).

Data set [4] concerns the target T2, M α1-antitrypsin (Homo sapiens, UniProt P01009).
T2 construct: Alpha1-antitrypsin was purified from the plasma of ZZ and MM α1-antitrypsin homozygotes; from tissue; host or cells: plasma of MM homozygotes
In words: Stoichiometry of inhibition against chymotrypsin, M α1-antitrypsin. The class given is biochemical. The note with it: M α1-antitrypsin pre-incubated with compound. As for the experimental part:
Mutations that interfere with the opening of […] or that perturb its interaction with the N-terminal portion of the reactive centre loop alter the ability of serpins to inhibit target proteases. The stoichiometry of inhibition (SI) was determined for M and Z α1-antitrypsin in discontinuous experiments against a model target protease, chymotrypsin. The pre-incubation of both variants with Compound 1 led to a >98% loss of protease inhibitory activity. […] To investigate whether this activity was consistent with action as a chemical chaperone, M and Z α1-antitrypsin were unfolded in vitro into 6 M guanidine hydrochloride, and rapidly refolded by snap dilution into denaturant-free buffer in the presence or absence of Compound 1.

The target of data set [5] is T1, Z α1-antitrypsin. In words: Compound association experiments (intrinsic tryptophan fluorescence), Z α1-antitrypsin. The class given is binding. Further details: a random insertion of the human Z α1-antitrypsin gene; from tissue; host or cells: liver and plasma of Z α1-antitrypsin transgenic mice (human Z transgene). As for the experimental part: (§1) The intrinsic tryptophan fluorescence of α1-antitrypsin is dominated by Trp194 in the breach region (Tew et al. J Mol Biol. 2001 Nov. 9; 313(5):1161-9) and can be used to monitor the progress of compound binding. Plasma M and Z α1-antitrypsin were diluted to 0.2 mg/ml in 100 μM PBS, and Compound 1 (or an equivalent volume of DMSO) added to a concentration of 10 μM. Fluorescence (λex=280 nm, λem=330 nm) was monitored for at least 2 hours, and the half-time of change was calculated.
(§2) Kinetic data in stopped flow experiments were fitted to exponential decay curves with offset and linear slope, to account for a constant drift in the background, resulting in observed pseudo-first-order rate constants k(obs): y=A0·e^−k(obs)t+slope·t+offset where t=time and Ao=amplitude at t=0. The second-order on-rate was then obtained as the slope when plotting k(obs) values versus compound concentration. Off-rates were calculated from the on-rates and the KD values determined from the binding assays. Cell Biology

Data set [6] can be described thus: Blood exposure after single PO administration in male CD-1 mouse. The class given is in vivo. The source says: Compound 1 had in vitro ADME properties suitable for in vivo evaluation of the pre-clinical and clinical pharmacology of the molecule.
The target of data set [7] is T2, M α1-antitrypsin. In words: Compound association experiments (intrinsic tryptophan fluorescence), M α1-antitrypsin. It is filed as binding. As for the experimental part: as §1, §2
[8] abbreviates: calculated from on-rate and KD, read-out: first-order dissociation rate.
Where [9] appears, read: read-out: second-order association rate.

T1 sequence (P01009 25-418 V237A/E366K): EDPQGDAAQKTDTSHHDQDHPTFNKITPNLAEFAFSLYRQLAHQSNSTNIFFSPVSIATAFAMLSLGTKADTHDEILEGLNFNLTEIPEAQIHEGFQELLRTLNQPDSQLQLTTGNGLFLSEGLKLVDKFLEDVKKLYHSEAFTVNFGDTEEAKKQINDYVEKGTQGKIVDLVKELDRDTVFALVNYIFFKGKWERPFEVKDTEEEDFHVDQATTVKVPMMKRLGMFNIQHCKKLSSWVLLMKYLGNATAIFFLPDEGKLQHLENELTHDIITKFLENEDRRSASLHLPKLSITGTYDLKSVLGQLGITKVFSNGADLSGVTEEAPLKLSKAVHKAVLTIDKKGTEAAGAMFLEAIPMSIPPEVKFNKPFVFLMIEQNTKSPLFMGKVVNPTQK
T2 sequence (P01009 25-418): as the sequence (P01009 25-418 V237A/E366K) above, with A213V, K342E counted along it

Consider `CCC[C@@H](NC(=O)c1cccc2c1CC(=O)N2)[C@@H](O)c1cccc(F)c1C` [Compound 1, N-[(1S,2R)-1-(3-fluoro-2-methylphenyl)-1-hydroxypentan-2-yl]-2-oxo-2,3-dihydro-1H-indole-4-carboxamide], for which the “liver polymer staining in low, medium and high intensity regions” value in data set [1] is listed as “No effect”. Besides, in data set [1] (manual or quantitative scoring), the “total liver polymer load” value is “no difference; also recorded: no reduction”. Further, in data set [2], the “denaturant concentration at peak bis-ANS fluorescence (maximally populated unfolding intermediate)” value was determined as 1.8 M. In addition, in data set [3], the IC50 is 398 nM. In addition, in data set [4], the “loss of protease inhibitory activity” value was over 98%. In addition, the koff in data set [5] (setting [8]) was 6.1e-05 s⁻¹; in data set [7] (setting [8]), 1.6e-05 s⁻¹. Also, the kon in data set [5] (setting [9]) is 41000 M⁻¹ s⁻¹; in data set [7] (setting [9]), 210 M⁻¹ s⁻¹. Also, the DNAUCinf was 202±101 in data set [6] (single PO 10 mg/kg), 294±47 in data set [6] (single PO 30 mg/kg) and 403±246 in data set [6] (single PO 100 mg/kg). The figures for the “mean dose-normalised Cmax” value in data set [6] (single PO 10 mg/kg), in data set [6] (single PO 30 mg/kg) and in data set [6] (single PO 100 mg/kg) were 58±112, 113±27 and 113±27, respectively.
